Measured values from US20190142835A1, “INHIBITION OF AUTOPHAGY USING PHOSPHOLIPASE A2 INHIBITORS” (OREGON HEALTH & SCIENCE UNIVERSITY, priority 2017, published 2019).

Assays:
[1] = test system: ACHN cells; experiment: Apoptosis (Caspase 3/7-Glo), ACHN; format: cell-based, human; conditions: ACHN, 72 h
Protocol: (§1) Apoptosis was determined using Caspase 3/7-Glo assay kit (Promega) following the manufacturer's instructions. Briefly, 2000 cells per well were plated in 96 well plates and cultured for 72 h. […] Caspase 3/7 activity was measured using a luminometer. Luminescence values were normalized by cell numbers.

[2] = test system: ACHN cells; experiment: Cellular respiration (XF96 Seahorse, ECAR and OCR); format: cell-based, human; conditions: XF-96 Extracellular Flux Analyzer
Protocol: Oxygen consumption and extracellular acidification rates were carried out in a XF96 Seahorse Analyzer (Seahorse Bioscience, Billerica, Mass., USA). Cells were plated in the wells of 96-well plates (8×10^3 cells/well; XF96 plates, Seahorse Bioscience, North Billerica, Mass.) and incubated at 37° C. overnight. The next day, cells were treated with indicated drugs for 24 hours and then the medium was changed to XF Assay Medium and loaded with glucose, oligomycin, and 2-DG, respectively, as manufacture's recommendation.

[3] = test system: ACHN cells; experiment: Lipid droplet staining (Bodipy 493/503), ACHN; format: cell-based, human; conditions: 24 hrs; p<0.001 vs control
Protocol: (§2) Cells were grown on coverslips then treated with drug for 24 hours. Cells were fixed in 4% paraformaldehyde for 15 min, rinsed with PBS. Cells were washed with a 1% saponin solution for 15 min at room temperature then washed several times in PBS to remove detergent. Cells were then incubated in Bodipy (ThermoFisher #D3922) at a final concentration of 1 uM for 10 min. Bodipy was removed and slides were rinsed with PBS then air dried and mounted on slides using Dako mounting media with Dapi.

[4] = test system: Atg5+/+ murine embryonic fibroblasts; experiment: Lipid droplet number in Atg5+/+ MEFs; format: cell-based, mouse; conditions: 24 hr
Protocol: as §2

[5] = test system: mouse embryo fibroblasts (MEFs) Atg5+/+; experiment: Autophagy induction (lipidation of LC3) in Atg5+/+ MEFs; format: cell-based
[6] = test system: human RCC and MPN cell lines; experiment: Growth effect of treatment in RCC and MPN cell lines; format: cell-based; conditions: multiple human RCC and MPN cell lines
[7] = test system: SN12C xenografts; experiment: SN12C xenograft study; format: in vivo
Protocol: 6-week old mice were utilized for human renal cell carcinoma xenografts. For both ACHN and SN12C cell lines 2×10^6 cells were diluted in 50 μl of PBS and 50 μl of Matrigel (BD Biosciences) and were injected subcutaneously into the right and left flank of each mouse. Tumors were monitored until they reached an average size of 50-80 mm3 (approximately 2 weeks), at which point treatments were begun. […] MK2206 (60 mg/kg/day) were administered by oral gavage 2-3 day/week. […] Tumors and mouse weights were measured twice weekly. At least 6-8 mice per treatment group were included. All mice were euthanized using CO2 inhalation followed by cervical dislocation per institutional guidelines at Oregon Health and Science University. Experiments were approved by the Institutional Animal Care and Use Committee at OHSU.
Immunostaining was performed following deparaffinization and rehydration of slides. Antigen retrieval was performed in a pressure cooker using citrate buffer (pH 6.0) for 4 min. Nonspecific binding was blocked using Vector mouse IgG blocking serum 30 min at room temperature. Samples were incubated at room temperature with rabbit monoclonal antibodies pS6 (CST #5364) cleaved caspase 3 (CST#9661), and Ki67 (Dako#M7240).
Slides were developed with Vector Immpress rabbit IgG (#MP7401) and Vector Immpress mouse IgG (#MP7400) for 30 min at room temperature. Chromogenic detection was performed using Vector Immpact DAB (#SK4105) for 3 min. Slides were counterstained with hematoxylin. A 3DHistech MIDI Scanner (Perkin Elmer) was used to capture whole slide digital images with a 20× objective. […]
Mouse tumor size was analyzed by 2-way ANOVA with time and drug as factors, using GraphPad Prism. Mouse weight during treatment was analyzed by repeated measures 2-way ANOVA, with time and drug as factors. […] Immunohistochemistry: P-values were calculated using one-way ANOVA, with Bonferroni's multiple comparison test. * denotes P<0.05, ** denotes P<0.01, and *** denotes P<0.001 throughout this disclosure. […]

[8] = test system: SN12C cells; experiment: Apoptosis (Caspase 3/7-Glo), SN12C; format: cell-based, human; conditions: 72 h
Protocol: as §1

[9] = test system: ACHN cells; experiment: Redox homeostasis (p-AMPK, NADPH, GSSG/GSH, ROS); format: cell-based, human; conditions: 2 μM CYT387, 10 μM MK2206, 24 hr
Protocol: ROS levels were measured with Cellrox Deep Red (Molecular Probes). Cell were plated in a 96 well clear bottom with black sides cell culture plate. […] The complete media+drug was removed after 24 hours and replaced with 5 μM of Cellrox Deep Red in media. Cells were incubated for 30 min at 370 C then washed with PBS. Fluorescence signal was detected using a Bioteck Cytation 5 plate reader. Data was analyzed using Prism software.

[10] = test system: glycolysis; experiment: Glucose uptake and lactate excretion as readouts for glycolysis; format: cell-based, human; conditions: in vitro
Text: The PI3K-AKT-mTOR pathway regulates multiple steps in glucose uptake and metabolism.

[11] = test system: Atg5 deficient cells (Atg5−/−); experiment: Autophagy induction in Atg5 deficient MEFs; format: cell-based, mouse
[12] = test system: MPN patients; conditions: human, in vivo; cited from earlier work

N#CCNC(=O)c1ccc(-c2ccnc(Nc3ccc(N4CCOCC4)cc3)n2)cc1 [CYT387]
apoptosis (cleaved-caspase 3/7) [1]: little or no effect on apoptosis | ECAR [2]: significantly reduced the ECAR | number of lipid droplets [3]: increase in the number of lipid droplets | size of lipid droplets [3]: increase in the size of lipid droplets | LD numbers [4]: significantly increase LD numbers | autophagy as seen by the lipidation of LC3 [5]: induce autophagy in a dose dependent manner | effect of treatment on cell growth [6]: primarily cytostatic | apoptosis (cleaved-caspase3) in tumors ([7]; SN12C xenograft tumors): minimal impact on apoptosis | antitumor effect of single agent ([7]; SN12C, CYT387 50 mg/kg/day or MK2206 60 mg/kg/day oral gavage): exhibited antitumor effect | apoptosis (cleaved-caspase 3/7) [8]: little or no effect on apoptosis | NADPH levels [9]: increases NADPH levels | ROS [9]: mitigates ROS | p-AMPK [9]: activates p-AMPK | glucose uptake ([10]; 18FDG): significantly decreased glucose uptake | lactate production ([10]; culture media): reduced lactate production | autophagy induction [11]: did not induce autophagy | clinical effect in MPN patients [12]: improved splenomegaly and reduced anemia
